Measurements: PMC10818931, “In Vitro Evaluation of Drug–Drug Interaction Potential of Epetraborole, a Novel Bacterial Leucyl-tRNA Synthetase Inhibitor” (Pharmaceuticals, 2024)

What was measured:
CYP2B6 = assay: CYP inhibition (direct and metabolism-dependent) in human hepatic microsomes; format: in vitro ADME
Procedure: The direct inhibitory potential of EBO on cytochrome P450 activities O-deethylase (CYP1A2), bupropion hydroxylase (CYP2B6), amodiaquine N-deethylase (CYP2C8), diclofenac 4′-hydroxylase (CYP2C9), S-mephenytoin 4′-hydroxylase (CYP2C19), bufuralol 1′-hydroxylase (CYP2D6), chlorzoxazone 6-hydroxylase (CYP2E1), testosterone 6β-hydroxylase (CYP3A), and midazolam 1′-hydroxylase (CYP3A) was assessed in vitro using human hepatic microsomes according to Covance Laboratory (Madison, WI, USA) SOP. A single substrate concentration was used, approximating the concentration of substrate that gives half the maximum reaction velocity (Km) for human hepatic microsomes for each cytochrome P450 activity. […] All sample and control incubations were performed in triplicate and were analyzed by LC-MS/MS. Incubation mixtures contained microsomal protein and substrate in a 0.1 M potassium phosphate buffer (pH 7.4) containing 1 mM EDTA (assay buffer). […] Incubations were terminated by the addition of 100 µL of an internal standard solution followed by vortex mixing. Protein was removed by centrifugation at 1500× g for 5 min at 4 °C, and supernatants were transferred to a separate plate and stored at 4 °C prior to LC-MS/MS analysis. The analyte for each activity assay was quantitated by comparison to a linear curve of an authentic standard prepared using human microsomal protein. […] Incubations were performed at substrate concentrations approximating the average Km values. […] For determination of control activities, NADPH was added after the addition of each substrate. Samples were then processed as previously described.

CYP3A4 = assay: Automated time-dependent inhibition assay in HLM; format: in vitro ADME, human; settings: EBO 30 and 50 µM, 30 min preincubation with NADPH
Procedure: The effect of EBO (30 and 50 µM) on time-dependent inhibition of CYP3A4 (testosterone and midazolam substrate) and CYP2D6 ([…] substrate) was determined using methodologies described previously. The Genesis robot (Tecan, Reading, UK) running Gemini software (https://www.tecan.com) was used to perform a fully automated TDI assay. The assay ran a preincubation (30 min at 37 °C, 1 mg/mL HLM incubation containing 1 mM NADPH and EBO) and a secondary incubation (containing 50 µL aliquot from the preincubation, 1 mM NADPH, and substrates for CYP3A4 and CYP2D6). At the end of the secondary incubation (15 min at 37 °C), an aliquot (50 µL) was removed and added to 100 µL of methanol to quench the reaction. Quenched samples were then chilled at −20 °C for 2 h, centrifuged at 2000× g for 15 min, and the supernatants were transferred to microtiter plates for LC/MS-MS analysis.

major CYP enzymes = assay: Stability studies (CYP substrate potential, hepatic microsomes); format: in vitro ADME

## NC[C@H]1OB(O)c2c(OCCCO)cccc21 [EBO, Epetraborole]
CYP2B6; human, human liver microsomes, pH 7.4, probe bupropion, read-out: as an Inhibitor IC50
  IC50: > 100 µM
CYP2B6; metabolism-dependent inhibition
  MDI IC50 Fold Change: No
CYP3A4
  Time-dependent inhibition: No time-dependent inhibition
Major CYP enzymes
  Substrate for major CYP enzymes (stability studies): poor substrate
